Laboratory results: patent US20230298697A1, “DETERMINING VIABILITY AND TREATMENT OF DISEASE AGENTS” (priority 2022, published 2023)
Values after ≈ are worked out from the molar mass of the structure shown. Values joined by “and” are separate entries in the source; they are usually repeats but may differ in a detail not shown here. Identical values can stand only once.

Tests used:
[1] = tested on: Mycobacterium tuberculosis H37Rv; experiment: Minimum Inhibitory Concentration 50 (MIC50) determination; type: cell-based; settings: OD600 growth inhibition, 72 hours, 7H9-rich media
[2] = tested on: Mycobacterium tuberculosis H37Rv; experiment: Time-kill assay (CFU counting); type: cell-based; settings: for CFUs /ml (10^6) h0: h0 (start of treatment); for Relative CFUs (log10) h72: h72 relative to h0
[3] = tested on: Mycobacterium tuberculosis H37Rv; settings: compared with other frontline drugs; stated as known; cited from earlier work

CO[C@H]1/C=C/O[C@@]2(C)Oc3c(C)c(O)c4c(O)c(c(/C=N/N5CCN(C)CC5)c(O)c4c3C2=O)NC(=O)/C(C)=C\C=C\[C@H](C)[C@H](O)[C@@H](C)[C@@H](O)[C@@H](C)[C@H](OC(C)=O)[C@@H]1C [RIF, Rifampicin]
MIC50 [1]: 0.02 µg/mL (≈ 0.0243 µM)

CC(=O)NC[C@H]1CN(c2ccc(N3CCOCC3)c(F)c2)C(=O)O1 [LZD, Linezolid]
MIC50 [1]: 1.13 µg/mL (≈ 3.35 µM)
CFUs /ml (10^6) h0 ([2]; 0.0844 µg/ml): 81 CFUs /ml (10^6) and 100 CFUs /ml (10^6) and 98 CFUs /ml (10^6)
CFUs /ml (10^6) h24 ([2]; 0.0844 µg/ml): 135 CFUs /ml (10^6) and 147 CFUs /ml (10^6) and 127 CFUs /ml (10^6)
CFUs /ml (10^6) h72 ([2]; 0.0844 µg/ml): 249 CFUs /ml (10^6) and 245 CFUs /ml (10^6) and 239 CFUs /ml (10^6)
Relative CFUs (log10) h72 ([2]; 0.0844 µg/ml): 0.488 log10 and 0.389 log10 and 0.387 log10
CFUs /ml (10^6) h0 ([2]; 0.844 µg/ml): 61 CFUs /ml (10^6) and 68 CFUs /ml (10^6) and 60 CFUs /ml (10^6)
CFUs /ml (10^6) h24 ([2]; 0.844 µg/ml): 63 CFUs /ml (10^6) and 74 CFUs /ml (10^6) and 92 CFUs /ml (10^6)
CFUs /ml (10^6) h72 ([2]; 0.844 µg/ml): 71 CFUs /ml (10^6) and 86 CFUs /ml (10^6) and 72 CFUs /ml (10^6)
Relative CFUs (log10) h72 ([2]; 0.844 µg/ml): 0.066 log10 and 0.102 log10 and 0.079 log10

COc1c(N2C[C@@H]3CCCN[C@@H]3C2)c(F)cc2c(=O)c(C(=O)O)cn(C3CC3)c12 [MXF, Moxifloxacin hydrocholoride]
MIC50 [1]: 0.07 µg/mL (≈ 0.174 µM)
CFUs /ml (10^6) h0 ([2]; 0.075 µg/ml): 69 CFUs /ml (10^6) and 53 CFUs /ml (10^6) and 72 CFUs /ml (10^6)
CFUs /ml (10^6) h24 ([2]; 0.075 µg/ml): 90 CFUs /ml (10^6) and 88 CFUs /ml (10^6) and 80 CFUs /ml (10^6)
CFUs /ml (10^6) h72 ([2]; 0.075 µg/ml): 159 CFUs /ml (10^6) and 165 CFUs /ml (10^6) and 147 CFUs /ml (10^6)
Relative CFUs (log10) h72 ([2]; 0.075 µg/ml): 0.363 log10 and 0.493 log10 and 0.31 log10
CFUs /ml (10^6) h0 ([2]; 0.3 µg/ml): 43 CFUs /ml (10^6) and 50 CFUs /ml (10^6)
CFUs /ml (10^6) h72 ([2]; 0.3 µg/ml): 0.1 CFUs /ml (10^6)
Relative CFUs (log10) h72 ([2]; 0.3 µg/ml): -2.633 log10 and -2.699 log10

CC(C)/N=c1\cc2n(-c3ccc(Cl)cc3)c3ccccc3nc-2cc1Nc1ccc(Cl)cc1 [CFZ, Clofazimine]
CFUs /ml (10^6) h0 ([2]; 0.0728 µg/ml): 239 CFUs /ml (10^6) and 141 CFUs /ml (10^6) and 148 CFUs /ml (10^6)
CFUs /ml (10^6) h24 ([2]; 0.0728 µg/ml): 116 CFUs /ml (10^6) and 112 CFUs /ml (10^6) and 124 CFUs /ml (10^6)
CFUs /ml (10^6) h72 ([2]; 0.0728 µg/ml): 176 CFUs /ml (10^6) and 192 CFUs /ml (10^6) and 207 CFUs /ml (10^6)
Relative CFUs (log10) h72 ([2]; 0.0728 µg/ml): -0.133 log10 and 0.134 log10 and 0.146 log10
CFUs /ml (10^6) h0 ([2]; 0.728 µg/ml): 158 CFUs /ml (10^6) and 182 CFUs /ml (10^6) and 101 CFUs /ml (10^6)
CFUs /ml (10^6) h24 ([2]; 0.728 µg/ml): 87 CFUs /ml (10^6) and 69 CFUs /ml (10^6) and 67 CFUs /ml (10^6)
CFUs /ml (10^6) h72 ([2]; 0.728 µg/ml): 41 CFUs /ml (10^6) and 26 CFUs /ml (10^6) and 52 CFUs /ml (10^6)

COc1nc2ccc(Br)cc2cc1[C@@H](c1ccccc1)[C@@](O)(CCN(C)C)c1cccc2ccccc12 [BDQ, Bedaquiline]
MIC50 [1]: 1.61 µg/mL (≈ 2.9 µM)
speed of killing of Mycobacterium tuberculosis [3]: kills Mycobacterium tuberculosis relatively slowly
CFUs /ml (10^6) h0 ([2]; 1.15 µg/ml): 61 CFUs /ml (10^6) and 69 CFUs /ml (10^6) and 72 CFUs /ml (10^6)
CFUs /ml (10^6) h24 ([2]; 1.15 µg/ml): 91 CFUs /ml (10^6) and 96 CFUs /ml (10^6) and 101 CFUs /ml (10^6)
CFUs /ml (10^6) h72 ([2]; 1.15 µg/ml): 352 CFUs /ml (10^6) and 362 CFUs /ml (10^6) and 346 CFUs /ml (10^6)
Relative CFUs (log10) h72 ([2]; 1.15 µg/ml): 0.761 log10 and 0.72 log10 and 0.682 log10
CFUs /ml (10^6) h0 ([2]; 5.75 µg/ml): 55 CFUs /ml (10^6) and 53 CFUs /ml (10^6) and 61 CFUs /ml (10^6)
CFUs /ml (10^6) h24 ([2]; 5.75 µg/ml): 97 CFUs /ml (10^6) and 81 CFUs /ml (10^6) and 100 CFUs /ml (10^6)
CFUs /ml (10^6) h72 ([2]; 5.75 µg/ml): 115 CFUs /ml (10^6) and 132 CFUs /ml (10^6) and 96 CFUs /ml (10^6)
Relative CFUs (log10) h72 ([2]; 5.75 µg/ml): 0.32 log10 and 0.396 log10 and 0.197 log10

NNC(=O)c1ccncc1 [INH, Isoniazid]
MIC50 [1]: 0.2 µg/mL (≈ 1.46 µM)
CFUs /ml (10^6) h24 ([2]; 0.018 µg/ml): 182 CFUs /ml (10^6) and 160 CFUs /ml (10^6) and 171 CFUs /ml (10^6)
CFUs /ml (10^6) h72 ([2]; 0.018 µg/ml): 184 CFUs /ml (10^6) and 194 CFUs /ml (10^6) and 203 CFUs /ml (10^6)
CFUs /ml (10^6) h0 ([2]; 0.18 µg/ml): 93 CFUs /ml (10^6) and 77 CFUs /ml (10^6) and 70 CFUs /ml (10^6)
CFUs /ml (10^6) h24 ([2]; 0.18 µg/ml): 60 CFUs /ml (10^6) and 90 CFUs /ml (10^6)
CFUs /ml (10^6) h72 ([2]; 0.18 µg/ml): 78 CFUs /ml (10^6) and 97 CFUs /ml (10^6) and 70 CFUs /ml (10^6)
Relative CFUs (log10) h72 ([2]; 0.18 µg/ml): -0.076 log10 and 0.1 log10 and 0 log10
CFUs /ml (10^6) h0 ([2]; 0.36 µg/ml): 159 CFUs /ml (10^6) and 180 CFUs /ml (10^6) and 187 CFUs /ml (10^6)
CFUs /ml (10^6) h72 ([2]; 0.36 µg/ml): 0.1 CFUs /ml (10^6)
Relative CFUs (log10) h72 ([2]; 0.36 µg/ml): -3.201 log10 and -3.255 log10 and -3.272 log10
CFUs /ml (10^6) h0 ([2]; 1.8 µg/ml): 77 CFUs /ml (10^6) and 68 CFUs /ml (10^6) and 87 CFUs /ml (10^6)
CFUs /ml (10^6) h72 ([2]; 1.8 µg/ml): 0.1 CFUs /ml (10^6)
Relative CFUs (log10) h72 ([2]; 1.8 µg/ml): -2.886 log10 and -2.833 log10 and -2.94 log10

O=[N+]([O-])c1cn2c(n1)OC[C@@H](OCc1ccc(OC(F)(F)F)cc1)C2 [PA824, Pretomanid]
MIC50 [1]: 0.15 µg/mL (≈ 0.418 µM)
